We go through two molecules from PMC6150197, “NeoBOMB1, a GRPR-Antagonist for Breast Cancer Theragnostics: First Results of a Preclinical Study with [^67Ga]NeoBOMB1 in T-47D Cells and Tumor-Bearing Mice” (Molecules : A Journal of Synthetic Chemistry and Natural …, 2017).

The target in the experiment is T1, GRPR (Homo sapiens, UniProt P30550).
T1 construct: Human ductal breast carcinoma T-47D cells endogenously expressing the GRPR were used in all biological assays; endogenous in cells; host or cells: T-47D human ductal breast carcinoma cells (live, adherent, 4 °C)
T1 sequence (P30550 whole entry): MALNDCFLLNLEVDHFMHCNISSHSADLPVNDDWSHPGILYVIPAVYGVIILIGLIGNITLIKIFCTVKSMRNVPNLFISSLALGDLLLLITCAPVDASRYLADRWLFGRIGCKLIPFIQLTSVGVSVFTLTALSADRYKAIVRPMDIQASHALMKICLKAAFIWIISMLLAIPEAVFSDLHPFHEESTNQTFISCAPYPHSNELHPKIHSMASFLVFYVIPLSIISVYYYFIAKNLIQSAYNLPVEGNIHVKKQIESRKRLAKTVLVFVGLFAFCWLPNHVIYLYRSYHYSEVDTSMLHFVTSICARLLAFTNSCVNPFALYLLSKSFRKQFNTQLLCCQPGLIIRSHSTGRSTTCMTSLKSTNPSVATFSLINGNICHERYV
As to the kind of experiment: Competition binding against [^125I-Tyr^4]BBN in T-47D cells.

Like-named read-outs stand apart in the source and are kept apart here. Square brackets hold non-standard residues; d marks the D form. * marks the point of attachment. DOTA = O=C(O)CN1CCN(CC(=O)O)CCN(CC(=O)*)CCN(CC(=O)O)CC1

As usually defined, the IC50 is the point on the concentration scale where inhibition reaches its midpoint.

Description: Methionine was added to the purified radioligand solution to prevent re-oxidation of Met^14 to the corresponding sulfoxide and the resulting stock solution in 0.1% BSA-PBS was kept at −20 °C; aliquots thereof were used for competition binding assays (specific activity of 2.2 Ci/μmol). Samples were measured for radioactivity in an automatic well-type gamma counter (NaI(Tl)] crystal, Canberra Packard Auto-Gamma 5000 series instrument, Schwadorf, Austria).
Human ductal breast carcinoma T-47D cells endogenously expressing the GRPR were used in all biological assays [14, 22, 23]. Cells were cultured in RPMI supplemented with 10% FBS, 100 U/mL penicillin and 100 µg/mL streptomycin, and kept in a controlled humidified atmosphere containing 5% CO2 at 37 °C. Passages were performed weekly using a trypsin/EDTA (0.05%/0.02% w/v) solution.
Cells were seeded in 12-well plates 24 h in advance (0.6 × 10^6 cells per well). On the day of the experiment, cells were placed on ice and washed with chilled washing medium (2 × 1 mL, RPMI supplemented with 1% heat inactivated FBS). […] Lysates were collected, combined and counted for their radioactivity content in a γ-counter. The IC50 values were calculated adopting nonlinear regression according to a one-site model applying the PRISM^TM 2 program (GraphPad Software, San Diego, CA, USA). […]

For the molecule `CC(C)CC(CC(C)C)NC(=O)[C@H](Cc1cnc[nH]1)NC(=O)CNC(=O)[C@@H](NC(=O)[C@H](C)NC(=O)[C@H](Cc1c[nH]c2ccccc12)NC(=O)[C@H](CCC(N)=O)NC(=O)[C@@H](Cc1ccccc1)NC(=O)COCC(=O)Nc1ccc(CNC(=O)CN2CCN(CC(=O)O)CCN(CC(=O)O)CCN(CC(=O)O)CC2)cc1)C(C)C` [NeoBOMB1, DOTA-p-aminomethylaniline-diglycolic acid-DPhe-Gln-Trp-Ala-Val-Gly-His-NH-CH[CH2-CH(CH3)2]2], the IC50 stood at 2.2 ± 0.2 nM.
On to “[^natGa]NeoBOMB1: NeoBOMB1 metalated with ^natGa ({DOTA-p‑aminomethylaniline-diglycolic acid}-[dF]QWAVGH-{2,6‑dimethylheptan‑4‑yl amide}; also: DOTA chelating natGa(III))”, for which the IC50 (live T-47D cells, 3 h incubation at 4 °C, one-site model, mean ± sd, n = 3 (n = 5 for [Tyr^4]BBN), in triplicate, read-out: IC50, displacement of [^125I-Tyr^4]BBN from GRPR-sites on T-47D cells) was found to be 2.5 ± 0.2 nM.
